Laboratory results taken from patent publication US20250312311A1, “Low Dose Fipronil Deer Feed” (priority 2024, published 2025).

Experiments:
[1] = test system: Amblyomma americanum; assay: Pen study: FDF efficacy against Amblyomma americanum parasitizing white-tailed deer (tick capsules, 8-day post-attachment); type: in vivo; conditions: Cp 13.5 ppb; the tick was A. americanum
[2] = test system: I. scapularis larvae; conditions: larvae parasitizing P. leucopus; Poché et al. 2021; cited from earlier work
[3] = test system: I. scapularis larvae; conditions: larvae parasitizing Peromyscus maniculatus; Pelletier et al. 2020; cited from earlier work

Structure (SMILES) | live female ticks collected in total from a deer having Cp at 13.5 ppb [1] | Cp determined to control 100% I. scapularis larvae [2] [ppb] | concentration in plasma required to control 94% I. scapularis larvae [3] [ppb] | concentration in plasma required to control 97% I. scapularis larvae [3] [ppb]
N#Cc1nn(-c2c(Cl)cc(C(F)(F)F)cc2Cl)c(N)c1S(=O)(=O)C(F)(F)F [fipronil sulfone] | one | ≥ 8.8 |  | 
Cc1cc(C2=NOC(c3cc(Cl)cc(Cl)c3)(C(F)(F)F)C2)ccc1C(=O)NCC(=O)NCC(F)(F)F (stereo not shown) [fluralaner] |  |  | 4000 | 13000
